# From patent publication US5622960A, “Topoisomerase II inhibitors and therapeutic uses therefor” (The United States of America as represented by the …, priority 1992, dated 1997)
# Entries after “also recorded” stand apart in the source; their conditions may differ.
# Legend:
# [1] = target: T1, purified murine leukemia top 2 (Mus musculus, UniProt Q01320); test: Sequencing of topoisomerase II cleavage sites (SV40 and c-myc DNA); type: biochemical; conditions: for top 2 cleavage sites induced (number/amount): SV40 and c-myc DNA, purified murine top 2
# T1 construct: single 170 kDa band on silver-stained SDS-PAGE
# T1 sequence (Q01320 whole entry): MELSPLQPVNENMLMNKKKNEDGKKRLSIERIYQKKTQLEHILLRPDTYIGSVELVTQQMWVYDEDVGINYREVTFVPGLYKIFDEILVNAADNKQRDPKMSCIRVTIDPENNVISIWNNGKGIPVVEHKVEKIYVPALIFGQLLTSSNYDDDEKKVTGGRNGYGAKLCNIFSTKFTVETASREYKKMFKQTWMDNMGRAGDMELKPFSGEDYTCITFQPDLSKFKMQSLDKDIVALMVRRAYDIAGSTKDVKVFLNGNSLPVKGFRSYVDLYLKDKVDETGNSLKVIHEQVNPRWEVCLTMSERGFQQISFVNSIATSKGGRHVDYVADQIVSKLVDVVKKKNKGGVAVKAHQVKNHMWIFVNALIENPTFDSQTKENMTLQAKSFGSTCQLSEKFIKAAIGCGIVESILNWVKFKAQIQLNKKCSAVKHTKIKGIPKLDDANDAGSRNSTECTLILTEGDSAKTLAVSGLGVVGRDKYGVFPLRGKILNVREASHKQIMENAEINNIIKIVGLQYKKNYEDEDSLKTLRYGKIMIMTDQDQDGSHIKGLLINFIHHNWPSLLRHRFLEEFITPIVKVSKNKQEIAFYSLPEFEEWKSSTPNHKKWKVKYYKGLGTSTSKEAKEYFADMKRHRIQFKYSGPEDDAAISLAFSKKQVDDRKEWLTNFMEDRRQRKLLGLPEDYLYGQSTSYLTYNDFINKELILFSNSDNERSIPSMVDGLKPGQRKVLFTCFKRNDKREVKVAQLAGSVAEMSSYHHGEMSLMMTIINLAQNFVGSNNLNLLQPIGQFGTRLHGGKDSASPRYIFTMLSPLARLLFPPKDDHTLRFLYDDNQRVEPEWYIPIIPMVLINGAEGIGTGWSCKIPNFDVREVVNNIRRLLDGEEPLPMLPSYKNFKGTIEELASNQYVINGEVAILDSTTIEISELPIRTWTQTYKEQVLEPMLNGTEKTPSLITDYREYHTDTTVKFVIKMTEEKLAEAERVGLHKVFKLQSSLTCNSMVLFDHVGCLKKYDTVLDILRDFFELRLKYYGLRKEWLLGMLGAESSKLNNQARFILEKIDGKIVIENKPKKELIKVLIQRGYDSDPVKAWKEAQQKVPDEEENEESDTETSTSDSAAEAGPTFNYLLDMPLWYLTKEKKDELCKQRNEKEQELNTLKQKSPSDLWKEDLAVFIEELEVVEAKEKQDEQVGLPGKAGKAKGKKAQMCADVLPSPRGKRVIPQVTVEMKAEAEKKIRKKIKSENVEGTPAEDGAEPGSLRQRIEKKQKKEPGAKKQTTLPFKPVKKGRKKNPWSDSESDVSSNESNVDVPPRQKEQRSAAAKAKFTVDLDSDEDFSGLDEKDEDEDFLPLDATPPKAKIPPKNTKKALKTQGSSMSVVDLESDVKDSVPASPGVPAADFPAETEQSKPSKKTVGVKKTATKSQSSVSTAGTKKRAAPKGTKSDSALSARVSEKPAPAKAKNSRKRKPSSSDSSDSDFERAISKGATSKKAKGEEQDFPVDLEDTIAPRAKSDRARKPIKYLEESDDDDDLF
# Procedure: (§1) Chemicals, and enzymes: Azatoxin and its derivatives, as well as the demethyldesoxypodophyllotoxin (DMDP) and demethylepipodophyllotoxin (DMEP), were synthesized by conventional methods. The compounds m-AMSA and mitoxantrone were obtained from the Drug Synthesis and Chemistry Branch, National Cancer Institute, Bethesda, Md. The compounds VP-16 and VM-26 were obtained from Bristol-Myers Company (Wallingford, Conn.). Drug stock solutions were made in dimethylsulfoxide at 10 mM. Further dilutions were made in distilled water. Various other reagents, including simian virus 40 (SV40) and c-myc human DNA inserts in plasmid pBR322, restriction endonucleases, DNA topoisomerase I, T4 polynucleotide kinase, calf intestine phosphatase, agarose and polyacrylamide/bis, were purchased from Bethesda Research Laboratories (Gaithersburg, Md.), from the American Type Culture Collection (Rockville, Md.) or from New England Biolabs (Beverly, Mass.). [Gamma-^32 P]ATP was purchased from New England Nuclear Research Products (Boston, Mass.).
# (§2) DNA topoisomerase II was purified from mouse leukemia L1210 cell nuclei as described, for example, by Pommier et al. (1985), supra, and was stored at -70° C. in 40% (v/v) glycerol, 0.35 M NaCl, 5 mM MgCl2, 1 mM KH2 PO4, 0.2 mM dithiothreitol and 0.1 mM phenylmethanesulfonyl fluoride (pH 6.4). The purified enzyme yielded a single 170 kDa band after silver staining of SDS-polyacrylamide gels, in accordance with the description of Pommier et al., Cancer Res. 46: 3075-81 (1986).
# (§3) Preparation of end-labeled DNA fragments: DNA fragments were 5' end-labeled as described, for example, by Fesen and Pommier (1989), supra. Briefly, native DNA was first linearized with a restriction enzyme, […] then the 5'-DNA termini were dephosphorylated with calf alkaline phosphatase and labeled with [gamma-^32 P]ATP using T4 polynucleotide kinase. For double-strand breaks assays using HL-60 nuclear extract, SV40 DNA was digested with BclI endonuclease and labeled at both DNA termini. For sequencing experiments, SV40 and c-myc DNAs were first 5'-end labeled at the XhoII and XbaI restriction sites, respectively. Then, in order to generate uniquely 5'-end-labeled fragments, labeled DNA was subjected to a second enzyme digestion, PflMI for SV40, and EcoRI plus HindIII for c-myc DNA. The resulting DNA fragments were separated by agarose gel electrophoresis and isolated by electroelution. Purification by phenol-chloroform extraction and ethanol precipitation were included between each step and at the end of the labeling procedures, pursuant to Pommier et al., J. Molec. Biol. 222: 909-24 (1991).
# Topoisomerase II-induced DNA cleavage reactions: DNA fragments were equilibrated with or without drug in 10 mM Tris-HCl, pH 7.5, 50 mM KCl, 5 mM MgCl2 0.1 mM EDTA, 1 mM ATP and 15 μg/ml bovine serum albumin for 5 minutes before addition of purified topoisomerase II (40 to 70 ng) or HL-60 nuclear extract in 20 μl final reaction volume. Reactions were stopped by adding sodium dodecyl sulfate (SDS) to a final concentration of 1% and proteinase K to 400 μg/ml, followed by incubation for 1 hour at 40° C.
# For DNA sequence analysis, samples were precipitated with ethanol and resuspended in 2.5 μl loading buffer (80% formamide, 10 mM NaOH, 1 mM EDTA, 0.1% xylene cyanol and 0.1% bromophenol blue). Samples were heated to 90° C. and immediately loaded into DNA sequencing gels (6% polyacrylamide; 19:1, acrylamide:bis) containing 7M urea in (1×) TBE buffer. Electrophoresis was at 2500 V (60 W) for 4 hours. Gels were dried on 3M paper sheets and autoradiographed with Kodak XAR-2 film. See Pommier et al. (1991), supra.
# Induction of top 2 cleavage by azatoxin was tested directly with the use of purified murine leukemia top 2. […] Sites of cleavage were also determined by DNA sequencing in the 5' flank of c-myc first intron.
# tubulin = test: in vitro tubulin polymerization assay; type: biochemical
# Procedure: (§4) Thus, azatoxin effectively prevents tubulin polymerization in vitro at concentrations in the range of 1 to 10 μM.
# [2] = system: cells (protein-linked DNA breaks); test: protein-linked DNA breaks in cells; type: cell-based; conditions: compared to other top 2 inhibitors
# [3] = system: top 2 (HL-60 nuclear extract); test: Induction of DNA double-strand breaks in SV40 DNA in presence of HL-60 nuclear extract; type: biochemical
# Procedure: as §1
# as §3, with “Purification by phenol-chloroform extraction and ethanol precipitation were included between each step and at the end of the labeling procedures, pursuant to Pommier et al., J. Molec. Biol. 222: 909-24 (1991).” left out
# For agarose gel analysis, 3 μl (10×) loading buffer (0.3% bromophenol blue, 16% Ficoll, 10 mM Na2 HPO4) was added to each sample which was then heated at 65° C. for 1-2 minutes before loading into an agarose gel made in (1×) TBE (89 mM Tris, 89 mM boric acid, 2 mM EDTA, pH8), in accordance with Fesen & Pommier (1989), supra. […] The quantification of drug-induced DNA double-strand breaks in the presence of HL-60 nuclear extract was effected as described in the next paragraph.
# Radioactive gels were counted in betascope 603 blot analyzer. […] Drug-induced cleavage was expressed as: [formula] where C. and T. are the counts for cleaved and total DNA, respectively, in presence of nuclear extract without drug.
# Drug-induced DNA double-strand breaks were measured first in SV40 DNA in the presence of HL-60 nuclear extracts. […]
# top 2 = test: Inhibition of top 2-mediated relaxation of native SV40 DNA; type: biochemical, mouse
# Procedure: as §2
# Two different assays were conducted to illuminate the nature of azatoxin's effects vis-a-vis DNA relaxation. To study the inhibition of top 2 catalytic activity, topoisomerase reactions were performed with 0.4 μg native SV40 DNA in 30 μl reaction buffer for 30 minutes at 37° C. and stopped by adding SDS to a final concentration of 1% and proteinase K to 400 μg/ml, followed by incubation for 1 hour at 42° C., essentially as described by Fesen & Pommier (1989), supra. Agarose gel electrophoresis was performed in 1% gels made in Tris-Acetate-EDTA (TAE) buffer (40 mM Tris-Acetate, pH 7.6, 10 mM Na2 EDTA). Gels were run at 2 V/cm overnight, washed in water and then stained with 1 μM ethidium bromide for 45 minutes. After an additional 45 minutes destaining in 1 mM Mg2 SO4, the DNA was visualized under UV light and photographed with a Polaroid type 57 film.
# [4] = system: panel of sixty human tumor cells lines; test: Growth inhibition / cytotoxicity against NCI panel of sixty human tumor cell lines; type: cell-based
# From the text: FIG. 1 is a graphical representation of results generated by testing the inhibitory activity of an illustrative compound within the present invention against panel of tumor cell lines which is a standard of the National Cancer Institute Developmental Therapeutics Program [GI50: "50% growth inhibition"; TGI: "[…]"; LC50: "50% lethal concentration"].
# See Yang et al., Cancer Res. 45:5872-76 (1985), and Liu (1989), supra, at 361-63. […] Pursuant to the convention of Paull et al., J. Nat'l Cancer Inst. […] See also Monks et al., J. Nat'l Cancer Inst. 83: 757-66 (1991), and Boyd, Principles & Practice of Oncology3:1-12 (1989).
# as §4
# SV40 DNA = test: DNA unwinding (intercalation) assay with excess topoisomerase I; type: biochemical, simian virus 40
# Procedure: To assess DNA unwinding, see Pommier et al., Nucleic Acids Res. 15: 6713-31(1987), the DNA was relaxed first by treatment for 15 minutes with top 1 (20 units), after which the test agent was added. These steps were carried out at 37° C. DNA-agent-top 1 mixtures were incubated for an additional 30 minutes and then stopped as described above. Samples were then subjected to agarose gel electrophoresis as described above.
# This was also the case for the 2 azatoxin isomers, 8 and 10, and for the demethylepipodophyllotoxins, DMDP and DMEP. Similar results were obtained with supercoiled DNA.
smiles,measurement,setting,value
"COc1cc([C@@H]2c3[nH]c4ccccc4c3C[C@H]3COC(=O)N32)cc(OC)c1O [Azatoxin, 5R, 11aS-3-One-5,4,11,11a-tetrahydro-5-(3,5-dimethoxy-4-hydroxyphenyl) -1H, 6H-oxazolo[3', 4': 1,6]pyrido[3,4-b]indole]",top 2 cleavage potency (in words),[1],potent top 2 inhibitor
same,top 2 cleavage sites induced (number/amount),[1],induced many cleavage sites both in the SV40 and the c-myc DNA fragments
same,top 2 cleavage sites induced (number/amount),[1]; listed as azatoxin,"induced more cleavage sites than mitoxantrone, m-AMSA, VM-26 or VP-16; also recorded: induces the largest number of top 2 cleavage sites both in SV40 and c-myc DNA"
same,top 2 cleavage pattern,[1]; compared with other top 2 inhibitors,cleavage pattern differing from those induced by other top 2 inhibitors
same,tubulin inhibition (in words),tubulin,potent tubulin inhibitor
same,inducing protein-linked DNA breaks in cells,[2],very active in inducing protein-linked DNA breaks in cells
same,DNA cleavage potency (in words),"[3]; SV40 DNA, HL-60 nuclear extract, compared to VP-16",comparable to that of VP-16
same,"cleavage above 10 μM, concentration dependence",[3]; above 10 μM,cleavage occurred at many sites and was proportional to the logarithm of azatoxin concentration
same,suppression of DNA cleavage at high drug concentrations,[3]; up to 1 mM,not suppressed at high drug concentrations (up to 1 mM)
same,production of linear / nicked DNA,top 2,produce a substantial amount of linear DNA without significant increased of nicked DNA
same,inhibition of top 2-mediated relaxation,"top 2; 30 minutes, 37° C.",inhibits top 2-mediated relaxation of native SV40 DNA
same,cytotoxicity to tumor cells (in words),[4]; FIG. 1 means graph,cytotoxicity of aratoxin to cells associated with disseminated cancers (leukemias) as well as several consolidated cancers (non-small cell lung and colon)
same,growth inhibition of human tumor cell lines (in words),"[4]; sixty cell lines: leukemia, melanoma, lung, colon, kidney, ovary, CNS",significant inhibitory activity
same,DNA unwinding / intercalation conclusion,SV40 DNA,does not intercalate into DNA
same,DNA unwinding,"SV40 DNA; relaxed SV40 DNA, excess topoisomerase I, concentrations as high as 1 mM",did not induce detectable DNA unwinding even at drug concentrations as high as 1 mM
